Laboratory results from US5411983A, “Certain hyrdoxy-phosphinyl-oxy-phenylmethyl-imidazolium hydroxide inner salts as PAF antagonists” (American Cyanamid Company, priority 1993, dated 1995).
Counter-ions that a name gives are not always drawn. Like-named read-outs stand apart in the source and are kept apart here.

Target: PAF receptor (Oryctolagus cuniculus, UniProt G1TEI7)
Experiment: Inhibition of PAF induced platelet aggregation in rabbit platelet rich plasma (PRP)
Format: cell-based, rabbit (male New Zealand White)
Design: immediately centrifuged at 800 rpm for 10 minutes at room temperature to recover the platelet rich plasma (PRP); endogenous in cells; host or cells: rabbit platelets in platelet rich plasma (male New Zealand White rabbits)
Conditions: rabbit platelet rich plasma
Procedure: Platelet activating factor (PAF) compounds were evaluated as PAF receptor antagonists in vitro by measuring inhibition of PAF induced platelet aggregation. Platelet aggregation was measured by a modification of the method of A. Wissner, et. al., J. Med. Chem., 27, 1174, 1984.
Approximately 120-240 ml of blood were collected by cardiac puncture from unanesthetized male New Zealand White rabbits (Whaley's Summit View Farms, Belvedere, N.J.) with the use of 3.2% sodium citrate anticoagulant (1 part of citrate/10 parts of blood). All syringes and pipets were plastic. The blood was gently mixed and immediately centrifuged at 800 rpm for 10 minutes at room temperature to recover the platelet rich plasma (PRP). Platelet poor plasma (PPP) was prepared by centrifuging PRP at 2800 rpm for 10 minutes at room temperature.
Dilutions (1:3000) Of PRP in Isoton diluent were made and platelet counts were determined on a Coulter Thrombocounter which was standardized with platelet reference standards (Interscience Platelet Control, Portland, Oreg.). PRP platelet counts were adjusted to 500,000 platelets/μl by the addition of PPP.
L-PAF was obtained from Calbiochem. A stock solution of 1-2 E-3M was prepared in 10% ethanol in water and serial working dilutions were made using phosphate buffered saline (PBS). 1-2 E-3M stock solutions of test compounds were prepared in 100% methanol and serially diluted in PBS. All solutions were made up in plastic tubes, stored on ice and protected from heat and light. Solutions were prepared fresh or frozen at -20° C. and used within 48 hours.
Incubation mixtures consisted of 400 μl PRP, 50 μl of PBS diluent or test compound and 50 μl of PAF agonist. More specifically, 400 μl of PRP was stabilized in a cuvette for 1-2 minutes at 37° C. in the aggregometer to achieve a stable baseline, then 50 μl of PBS or test compound, was added and incubated for 5 minutes before addition of the challenge concentration of PAF ([…], as determined from the dose response curve for PAF for that experiment). Aggregation was monitored for 5 minutes. Samples containing test compound or diluent were run simultaneously for comparison. Test compounds were initially evaluated at a screening concentration of 1E-5M. Those producing ≥ 50% inhibition of the magnitude of aggregation were then reevaluated in a dose response fashion (final concentrations 1E-7M to 5E-5M) and IC50 values were determined. Ki values were also calculated in some cases from [formula] where Ki =inhibitory constant
IC50 =molar concentration of test compound which gives 50% inhibition
[PAF]=molar concentration of PAF used as challenges
EC50 =molar concentration of PAF which gives 50% of maximal aggregation.
The recording equipment consisted of single or dual channel Chronolog aggregometers connected to dual channel 10 MV full scale deflection Omniscribe chart recorders (Houston Instruments). […] The bead suspension was used to set the 0% light transmission mark and clear water was used to set the 100% light transmission mark. These limits defined a full scale deflection. The aggregation traces were analyzed by a digitizing method (C. Kohler and B. Zoltan, J. Pharm. Methods, 12, 113, 1984) with x, y coordinate data stored in a computer file. A suitable program computed parameters of interest such as the magnitude of aggregation.

[1] = PAF challenge 5E-8M, read-out: IC50 (M) PRP, inhibition of PAF-induced platelet aggregation
[2] = IC50 (M) PRP, inhibition of PAF-induced platelet aggregation, PAF challenge 1E-6M
[3] = IC50 (M) PRP, inhibition of PAF-induced platelet aggregation, PAF challenge 1E-7M
[4] = IC50 (M) PRP, inhibition of PAF-induced platelet aggregation, PAF challenge 5E-8M
[5] = PAF challenge 1E-6M, read-out: IC50 (M) PRP, inhibition of PAF-induced platelet aggregation
[6] = PAF challenge 1E-7M, read-out: IC50 (M) PRP, inhibition of PAF-induced platelet aggregation

PAF receptor, sequence (G1TEI7 1-342): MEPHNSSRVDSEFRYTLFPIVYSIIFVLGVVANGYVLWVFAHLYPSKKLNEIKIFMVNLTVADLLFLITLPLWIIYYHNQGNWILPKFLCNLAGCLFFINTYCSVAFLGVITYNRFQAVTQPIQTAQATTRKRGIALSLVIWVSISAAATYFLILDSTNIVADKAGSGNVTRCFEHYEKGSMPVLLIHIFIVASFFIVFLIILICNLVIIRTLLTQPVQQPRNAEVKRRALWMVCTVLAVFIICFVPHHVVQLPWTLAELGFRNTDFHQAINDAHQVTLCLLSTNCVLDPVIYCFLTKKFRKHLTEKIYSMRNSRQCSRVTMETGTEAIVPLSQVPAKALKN

Structure (SMILES) | IC50 [3] [M] | IC50 [4] [M] | further results
CCCCCCCCCCCCCCCCOCC(COC(=O)c1cccc(C[n+]2ccccn2)c1)OC (centres unmarked) [1-[[3-[[3-(Hexadecyloxy)-2-methoxypropoxy]carbonyl]phenyl]methyl]pyridazinium, bromide] | – | – | IC50 [1]: 1.1e-05 M
CCCCCCCCCCOCCOCCOCC(COP(=O)([O-])Oc1cccc(C[n+]2csc(C)c2)c1)OC (centres unmarked) [3-[[3-[[1-Hydroxy-4-methoxy-2,6,9,12-tetraoxa-1-phosphadocosyl]oxy]phenyl]-methyl]-5-methylthiazolium, hydroxide, inner salt, P-oxide] | 3.9e-06 | 2.2e-06 | IC50 [2]: 9.4e-05 M
CCCCCCCCCCCCCCCCOCC(COCc1cccc(C[n+]2ccsc2)c1)OC (centres unmarked) [3-[[3-[[3-(Hexadecyloxy)-2-methoxypropoxy]methyl]phenyl]methyl]thiazolium bromide] | – | – | IC50 [5]: 2.6e-05 M; IC50 [6]: 3.7e-06 M; IC50 [1]: 1.3e-06 M
CCCCCCCCCCCCOc1cccc(OCC(COP(=O)([O-])Oc2cccc(C[n+]3ccccc3)c2)OC)c1C (centres unmarked) [1-[[3-[[[3-[3-(Dodecyloxy)-2-methylphenoxy]-2-methoxypropoxy]hydroxyphosphinyl]oxy]phenyl]methyl]pyridinium, hydroxide, inner salt] | – | 1.7e-07 | –
CCCCCCCCCCCCCCCCOCC(COC(=O)c1cccc(C[n+]2ccsc2)c1)OC (centres unmarked) [3-[[3-[[3-(Hexadecyloxy)-2-methoxypropoxy]carbonyl]phenyl]methyl]thiazolium, bromide] | – | – | IC50 [5]: 4.9e-05 M; IC50 [6]: 6.1e-06 M; IC50 [1]: 3.6e-06 M
CCCCCCCCCCCCCCCCCCOP(=O)([O-])Oc1cccc(C[n+]2ccsc2)c1 [3-[[3-[[Hydroxy(octadecyloxy)phosphinyl]oxy]phenyl]methyl]thiazolium, hydrozide, inner salt] | – | 2.2e-05 | –
CCCCCCCCCCCCCCCCCCNC(=O)OCC(COP(=O)([O-])Oc1cccc(C[n+]2ccccc2)c1)OC (centres unmarked) [3-[[3-[(1-Hydroxy-4-methoxy-7-oxo-2,6-dioxa-8-aza-1-phosphahexacosyl)oxy]phenyl]methyl]pyridinium, hydroxide, inner salt, P-oxide] | – | 4.4e-06 | –
C=C(C)COC(COCCCCCCCCCCCCCCCC)COP(=O)([O-])Oc1cccc(C[N+](C)(C)C)c1 (centres unmarked) [3-[[[3-(Hexadecyloxy)-2[(2-methyl-2-propeny)oxy]propoxy]hydroxyphosphinyl]-oxy]- --N, --N, --N-trimethylbenzenemethanaminium, hydioxide, inner salt] | 4.8e-05 | – | –
CCCCCCCCCCCCOc1cccc(OCC(COP(=O)([O-])Oc2cccc(C[n+]3csc(C)c3)c2)OC)c1C (centres unmarked) [3-[[3-[[[3-[3-(Dodecyloxy]-2-methylphenoxy]-2-methoxypropoxy]hydroxyphosphinyl]oxy]phenyl]methyl]-5-methylthiazolium, hydroxide, inner salt] | 2e-06 | 9.3e-07 | IC50 [2]: 3e-05 M
C=C(C)COC(COCCCCCCCCCCCCCCCC)COP(=O)([O-])Oc1ccccc1C[n+]1ccsc1 (centres unmarked) [3-[[2-[[[3-(Hexadecyloxy)-2-[(2-methyl-2-propenyl)oxy]propoxy]hydroxyphosphinyl]oxy]phenyl]methyl]thiazolium, hydroxide, inner salt] | – | 2.6e-06 | –
COC(COCc1ccc(OCc2ccccc2)cc1)COP(=O)([O-])Oc1cccc(C[n+]2ccsc2)c1 (centres unmarked) [3-[[3-[(Hydroxy[2-methoxy-3-[[4-(phenylmethoxy)phenyl]methoxy]propoxy]phosphinyl]oxy]phenyl]methyl)thiazolium, hydroxide, inner salt] | – | 0.0004 | –
CCCCCCCCCCCCCCCCOCC(COP(=O)(O)Oc1cccc(C[P+](c2ccccc2)(c2ccccc2)c2ccccc2)c1)OC (centres unmarked) [[[3-[[[3-(Hexadecyloxy)-2-methoxypropoxy]hydroxyphosphinyl]oxy]phenyl]-methyl]triphenylphosphonium, bromide] | – | 1.4e-05 | –
CCCCCCCCCCCCOc1cccc(OCC(COP(=O)([O-])Oc2cccc(C[n+]3csc(CCO)c3C)c2)OC)c1C (centres unmarked) [3-[[3-[[[3-[3-(Dodecyloxy)-2-methyl-phenoxy]-2-methoxypropoxy]hydroxyphosphinyl]oxy]phenyl]methyl)-5-(2-hydroxyetbyl)-4-methylthiazolium, hydroxide, inner salt] | – | 1.7e-05 | –
COC(COCCCCCCCCOc1ccc(-c2ccccc2)cc1)COP(=O)([O-])Oc1cccc(C[n+]2ccsc2)c1 (centres unmarked) [3-[[3-[[[3-[[8-([1,1'-Biphenyl]-4-yloxy)octyl]-oxy]-2-methyoxypropoxy]hydroxyphosphinyl]-oxy]phenyl]methyl]thiazolium, hydroxide, inner salt] | 2.3e-06 | – | –
CCCCCCCCCCCCCCCCOCC(COP(=O)([O-])Oc1cccc(C[n+]2ccccc2)c1)OC (centres unmarked) [1-[[3-[[[3-(Hexadecyloxy)-2-methoxypropoxy]hydroxyphosphinyl]oxy]phenyl]methyl]pyridinium, hydroxide, inner salt] | 1e-05 | 5.78e-06 to 6e-06 | IC50 [2]: 0.00018 M
CCCCCCCCCCCCOc1cccc(OCC(COP(=O)([O-])Oc2cccc(C[n+]3cccc4ccccc43)c2)OC)c1C (centres unmarked) [1-[[3-[[[3-[3-(Dodecyloxy)-2-methylphenoxy]-2-methoxypropoxy]hydroxyphosphinyl]oxy]phenyl]methyl]quinolinium, hydroxide, inner salt] | 1.2e-05 | 7.3e-05 | –
CCCCCCCCCCCCCCc1cccc(OCC(COP(=O)([O-])Oc2cccc(C[n+]3ccccc3)c2)OC)c1 (centres unmarked) [1-[[3-[[Hydroxy[2-methoxy-3-(3-tetradecylphenoxy)propoxy]phosphinyl]oxy]phenyl]methyl]pyridinium, hydroxide, inner salt] | 5.4e-06 | 4.1e-06 | IC50 [2]: 5.3e-05 M
CCCCCCCCCCCCCCCCCC(=O)NCC(COCCCCCCCCCCCCCCCC)COP(=O)([O-])Oc1cccc(C[n+]2ccsc2)c1 (centres unmarked) [3-[[3-[[[(2-[(Hexadecyloxy)methyl]-3-[(1-oxooctadecyl)amino]propoxy]hydroxy-phosphinyl]oxy]phenyl]methyl]thiazolium, hydroxide, inner salt] | 0.00013 | 4.8e-05 | –
C=C(C)COC(COCCCCCCCCCCCCCCCC)COP(=O)([O-])Oc1cccc(C[n+]2ccsc2)c1 (centres unmarked) [3-[[3-[[[3-(Hexadecyloxy)-2-[(2-methyl-2-propenyl)oxy]propoxy]hydroxyphosphinyl]oxy]phenyl]methyl]thiazolium, hydroxide, inner salt] | 2.6e-06 | 2.1e-06 | IC50 [2]: 3.9e-05 M
CCCCCCCCCCOCCOCCOCC(COP(=O)([O-])Oc1cccc(C[n+]2ccsc2)c1)OC (stereo not drawn) [3-[[3-[(1-Hydroxy-4-methoxy-2,6,9,12-tetraoxa-l-phosphadocos-l-yl)oxy]-phenyl]methyl]thiazolium, hydroxide, inner salt, P-oxide] | – | 8.3e-06 | –
COC(COCc1ccc(OCc2ccc(Cl)cc2)cc1)COP(=O)([O-])Oc1cccc(C[n+]2ccsc2)c1 (centres unmarked) [3-[[3-[[[3-[[4-[(4-Chlorophenyl)methoxy]phenyl]methoxy]-2-methoxypropoxy]hydroxyphosphinyl]oxy]phenyl]methyl]thiazolium, hydroxide, inner salt] | – | 3e-05 | –
COC(CCCOCc1ccccc1)COP(=O)([O-])Oc1cccc(C[n+]2ccsc2)c1 (centres unmarked) [3-[[3-[[Hydroxy[[5-(phenylmethoxy)-2-methoxypentyl]oxy]phosphinyl]oxy]-phenyl]methyl]thiazolium, hydroxide, inner salt] | – | 0.0001 | –
